Like-named read-outs stand apart in the source and are kept apart here.
What was measured:
[1] = system: Phospho-ERK (Ras-MAPK signaling pathway); assay: ERK phosphorylation ELISA assay (FACE) in MCF-7 cells; type: cell-based, human; settings: 6 hours, EGF 100 ng/mL for 5 min
Description: Human breast tumor MCF-7 cells were plated in 96-well culture plates (10,000 cells per well) in RPMI containing 10% FBS. After an overnight incubation, the medium is changed to low serum conditions (RPMI containing 0.1% FBS) for 18 h. Cells were then treated with ECO-4601 or selected analogs for 6 hours and then stimulated by the addition of EGF (100 ng/mL for 5 min) to induce the MAPK pathway. UO126 is a commercial inhibitor (Promega, Madison, Wis.) of mitogen-activated protein kinase kinase (MEK1/ERK). Following stimulation, cells were rapidly fixed, which preserved activation-specific protein modifications. Each well was then incubated with an antibody specific for Phospho-ERK or total ERK. After an one-hour incubation and several washes, cells were incubated with a secondary HRP-conjugated antibody followed by a developing solution that provided a colorimetric readout that is quantitative and reproducible. The Fast Activated Cell-based ELISA (FACE™) is commercially available (Active Motif, Carlsbad, Calif.).

[2] = system: human breast cell line MCF-7; assay: Growth inhibitory MTT assay, MCF-7; type: cell-based; settings: 72 hours, treated over control
Description: (§1) Growth inhibitory activity of ECO-4601 (Compound 1) and other dibenzodiazepinone analogs was evaluated on a panel of 4 human tumor cell lines: the human uterine sarcoma MES-SA and its doxorubicin-resistant P-glycoprotein over-expressing variant, MES-SA/DX5 as well as non-aggressive and highly aggressive human breast cell lines, MCF-7 and MDA-MB-231, respectively. These four cell lines were obtained from the American Type Culture Collection (Manassas, Va.) and cultured in RPMI plus 10% fetal bovine serum (FBS) and maintained at 37° C. with 5% CO2.
(§2) Exponentially growing cells (5,000 cells per well time; cell number determined with a hemocytometer) were seeded in 96-well flat-bottom plates and allowed to grow overnight. Cells were then incubated for 72 hours with three different concentrations of ECO-4601 or analogs: 30,10, and 3 μM. The in vitro growth inhibitory activity was determined by a commercial MTT assay. All measurements were done in quadruplicate and each experiment was performed 2-3 times. The lower the value, the more cytotoxic is the compound.

[3] = system: 60 different human tumor cell lines; assay: NCI in vitro screening, 60 human tumor cell lines; type: cell-based; settings: for GI50: Homo sapiens
Source text: A study measuring the in vitro cytotoxic activity of Compound 1 was first performed by the NCI (National Cancer Institute, U.S. National Institutes of Health, Bethesda, Md., USA) against a panel of human cancer cell lines. This screen utilizes 60 different human tumor cell lines, representing cancers of the blood, skin, lung, colon, brain, ovary, breast, prostate, and kidney (More information available at: http://dtp.nci.nih.gov/branches/btb/ivclsp.html.) The compound was sent and tested on three occasions (Mar. 31, 2003; Dec. 1, 2003; Mar. 27, 2007).

[4] = system: human breast cell line MDA-MB-231; assay: Growth inhibitory MTT assay, MDA-MB-231; type: cell-based; settings: 72 hours, treated over control
Description: as §1, §2

human MEK1 = target: T1, human MEK1 (Homo sapiens, UniProt Q02750); assay: Upstate Kinase Profiler, MEK1; type: biochemical
T1 construct: purchased Upstate (Kinase Profiler Service; Dundee, UK)
T1 sequence (Q02750 whole entry): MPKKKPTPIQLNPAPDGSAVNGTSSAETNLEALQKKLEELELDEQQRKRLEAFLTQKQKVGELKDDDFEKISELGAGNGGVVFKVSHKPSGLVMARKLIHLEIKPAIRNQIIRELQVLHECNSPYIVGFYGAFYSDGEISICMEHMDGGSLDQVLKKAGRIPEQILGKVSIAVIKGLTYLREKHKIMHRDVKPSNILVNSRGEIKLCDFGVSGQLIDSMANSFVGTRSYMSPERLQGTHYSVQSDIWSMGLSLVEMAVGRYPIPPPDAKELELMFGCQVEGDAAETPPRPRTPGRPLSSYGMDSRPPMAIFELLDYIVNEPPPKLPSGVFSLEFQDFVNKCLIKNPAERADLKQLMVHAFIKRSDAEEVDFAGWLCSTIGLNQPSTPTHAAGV
Description: Unlike current Ras signalling pathway inhibitors, ECO-4601 is not a direct kinase inhibitor. This was documented by evaluating the effect of ECO-4601 on human EGFR, c-RAF, MEK1, MAPK1 (ERK1) and MAPK2 (ERK2) kinase-activity (Upstate Kinase Profiler™ Service; Dundee, UK). ECO-4601 was tested at 0.5 μM and 5 μM in a final volume of 25 μL according to standard protocols developed by Upstate Ltd. Briefly, purified recombinant human enzymes were incubated with 25 mM Tris pH 7.5 containing EGTA, a specific substrate and γ-^32P-ATP. The reaction was initiated with MgATP mix and incubated for 40 minutes at RT. The reaction was stopped by the addition of 5 μL of a 3% phosphoric acid solution; aliquots were spotted on filters and counted. Detailed procedures are available on the Millipore Upstate website.

PBR = target: T2, PBR (Rattus norvegicus, UniProt P16257); assay: In vivo PBR occupancy by PET (11C-(R)-PK11195) following IP administration; settings: 30 mg/kg IP, 30 min before scan, mean±S.D.
T2 construct: from tissue; host or cells: orthotopic rat C6 glioma in Sprague-Dawley rats, in vivo
Description: (R)-1-(2-chlorophenyl)-N-methyl-N-(1-methyl-propyl)-3-isoquinoline carboxamide (R N-desmethyl PK11195), the precursor for the radioisotope-labeled (R) —PK11195, was purchased from ABX (Radeburg, Germany). The synthesis of ^11C-(R)-PK11195 was accomplished by a modification of the method of Camsonne et al. (J. Label. Compd. Radiopharm., 21: 985-991,1984). Briefly, ^11C-methyl iodide (^11C—CH3I) was transferred by a stream of nitrogen gas at a flow rate of 10 ml/min into a reaction medium containing 1 mg or R—N-desmethyl PK11195 previously dissolved in 0.5 mL of dimethylsulfoxide (DMSO) and about 20 mg of sodium hydroxide. The reaction was initiated at room temperature, with a bubbling of the ^11C—CH3I being continued over a 5 minute period. After bubbling was complete, the reaction mixture was left standing for 5 minutes. Purification was performed by high pressure liquid chromatography (HPLC) using a reverse-phase C18 column and a methanol:ammonium formate (20 mM) (80:20) mixture and a mobile phase at a flow rate of 3 mL/min. ^11C—(R) —PK11195 was eluted at 11 minutes and obtained with a specific radioactivity of […].
In vivo PET studies were performed 14 days post tumor implantation. […] Attenuation correction factors, for each rat (total of 7 animals), were determined using a 10 min ^57Co transmission scan acquired immediately prior to the dynamic scan. […]

CC(C)=CCC/C(C)=C/CC/C(C)=C/CN1C(=O)c2cccc(O)c2Nc2c(O)cc(O)cc21 [Compound 1, 10-farnesyl-4,6,8-trihydroxy-5,10-dihydrodibenzo[b,e][1,4]diazepin-11-one]
inhibition of phospho-ERK in the FACE ELISA assay [1]: inhibit the Ras-MAPK signaling pathway | % T/C at 10 μM [2]: 44% | cytotoxic activity in NCI in vitro screening (in words) ([3]; 60 cell lines): low micromolar range | GI50 ([3]; Breast carcinoma cell, breast carcinoma cell lines, read-out: GI50 range): 1.4 to 16.3 µM | GI50 ([3]; CNS (glioblastoma) cell lines, read-out: GI50 range): 2 to 6.5 µM | GI50 ([3]; Colon carcinoma cell, colon carcinoma cell lines, read-out: GI50 range): 3 to 17.3 µM | GI50 ([3]; Ovarian carcinoma cell, ovarian carcinoma cell lines, read-out: GI50 range): 2.5 to 6.2 µM | GI50 ([3]; leukemia cell lines, read-out: GI50 range): 0.9 to 5 µM | GI50 ([3]; melanoma cell lines, read-out: GI50 range): 1.8 to 8.1 µM | GI50 ([3]; non-small cell lung carcinoma cell lines, read-out: GI50 range): 1.9 to 10.8 µM | GI50 ([3]; prostate carcinoma cell lines, read-out: GI50): 3.5 to 9.3 µM | GI50 ([3]; renal carcinoma cell lines, read-out: GI50 range): 2.9 to 14.5 µM | % T/C at 10 μM [4]: 38% | direct inhibition of MEK1 kinase activity (in words) (human MEK1; 0.5 μM and 5 μM): does not directly inhibit | activity at 0.5 µM (human MEK1; MEK1, 0.5 μM, % of enzyme activity over positive control, read-out: Kinase Activity (%) ± SD): 106 ± 2% | activity at 5 µM (human MEK1; MEK1, 5 μM, % of enzyme activity over positive control, read-out: Kinase Activity (%) ± SD): 98 ± 1% | mean tumor binding potential (B.P.) after compound (PBR): 1.05±0.34
